{"source": "patent US6730683B2", "about": "“Compounds of heteroaryl substituted imidazole, their pharmaceutical compositions and uses” (SmithKline Beecham Corporation, priority 1997, dated 2004)", "key": {"[1]": {"test_system": "human PGHS-2 protein expression in LPS stimulated human monocytes", "assay": "Prostoglandin Endoperoxide Synthase-2 (PGHS-2) Assay", "format": "cell-based", "details": "for LPS induced PGHS-2 protein expression (inactive in this assay): up to 10 uM; for inhibited LPS induced PGHS-2 protein expression (active in this assay): rank order potency similar to that for inhibiting cytokine production", "procedure": "The following assay describes a method for determining the inhibitory effects of compounds of Formula (I) on human PGHS-2 protein expression in LPS stimulated human monocytes.\nHuman peripheral blood monocytes were isolated from buffy coats by centrifugation through Ficoll and Percoll gradients. Cells were seeded at 2×10^6/well in 24 well plates and allowed to adhere for 1 hour in RPMI supplemented with 1% human AB serum, 20 mM L-glutamine, Penicillin-Streptomycin and 10 mM HEPES. Compounds were added at various concentrations and incubated at 37° C. for 10 minutes. LPS was added at 50 ng/well (to induce enzyme expression) and incubated overnight at 37° C. The supernatant was removed and cells washed once in cold PBS. The cells were lysed in 100 μl of cold lysis buffer(50 mM Tris/HCl pH 7.5, 150 mM NaCl, 1% NP40, 0.5% sodium deoxycholate, 0.1% SDS, 300 ug/ml DNAse, 0.1% TRITON X-100, 1 mM PMSF, 1 mM leupeptin, 1 mM pepstatin). The lysate was centrifuged (10,000×g for 10 min. at 4° C.) to remove debris and the soluble fraction was subjected to SDS PAGE. analysis (12% gel). Protein separated on the gel were transferred onto nitrocellulose membrane by electrophoretic means for 2 hours at 60 volts. The membrane was pretreated for one hour in PBS/0.1% Tween 20 with 5% non-fat dry milk. After washing 3 times in PBS/Tween buffer, the membrane was incubated with a 1:2000 dilution of a monospecific antiserum to PGHS-2 or a 1:1000 dilution of an antiserum to PGHS-1 in PBS/Tween with 1% BSA for one hour with continuous shaking. The membrane was washed 3× in PBS/Tween and then incubated with a 1:3000 dilution of horseradish peroxidase conjugated donkey antiserum to rabbit Ig (Amersham) in PBS/Tween with 1% BSA for one hour with continuous shaking. The membrane was then washed 3× in PBS/Tween and the ECL immunodetection system (Amersham) was used to detect the level of expression of prostaglandin endoperoxide synthases-2."}, "[2]": {"test_system": "pro-inflammatory proteins including, IL-6, IL-8, GM-CSF and COX-2", "details": "cited from earlier work"}}, "data": [{"smiles": "C[S+]([O-])c1ccc(-c2nc3n(c2-c2ccncc2)CCC3)cc1", "note": "(stereo not shown) [2-(4-Methylsulfinylphenyl)-3-(4-pyridyl)-6,7-dihydro-(5H)-pyrrolo[1,2-a]imidazole]", "values": [{"measurement": "LPS induced PGHS-2 protein expression (inactive in this assay)", "setting": "[1]", "result": "inactive"}]}, {"smiles": "Fc1ccc(-c2nc3n(c2-c2ccncc2)CCS3)cc1", "note": "[6-(4-Fluoro-phenyl)-2,3-dihydro-5-(4-pyridinyl)imidazo[2,1-b]thiazole]", "values": [{"measurement": "inhibited LPS induced PGHS-2 protein expression (active in this assay)", "setting": "[1]", "result": "active"}]}, {"smiles": "C[C@@H]1C[C@H]2[C@@H]3CCC4=CC(=O)C=C[C@]4(C)[C@@]3(F)[C@@H](O)C[C@]2(C)[C@@]1(O)C(=O)CO", "note": "[Dexamethasone]", "values": [{"measurement": "inhibited LPS induced PGHS-2 protein expression (active in this assay)", "setting": "[1]", "result": "active"}]}, {"smiles": "COc1ccc(C2CNC(=O)C2)cc1OC1CCCC1", "note": "(stereo not shown) [Rolipram]", "values": [{"measurement": "LPS induced PGHS-2 protein expression (inactive in this assay)", "setting": "[1]", "result": "inactive"}]}, {"smiles": "C[S+]([O-])c1ccc(-c2nc(-c3ccncc3)c(-c3ccc(F)cc3)[nH]2)cc1", "note": "(stereo not shown) [SB 203580]", "values": [{"measurement": "synthesis of pro-inflammatory proteins including IL-6, IL-8, GM-CSF and COX-2", "setting": "[2]", "result": "decrease"}]}, {"smiles": "Fc1ccc(-c2nc3n(c2-c2ccncc2)CCS3)cc1", "note": "[SK&F 86002]", "values": [{"measurement": "synthesis of pro-inflammatory proteins including IL-6, IL-8, GM-CSF and COX-2", "setting": "[2]", "result": "decrease"}]}, {"smiles": "O=C1CCN(c2ccccc2)N1", "note": "[phenidone]", "values": [{"measurement": "LPS induced PGHS-2 protein expression (inactive in this assay)", "setting": "[1]", "result": "inactive"}]}]}
